Experimental findings from PubChem BioAssay (NCI) are described below.

Among the test systems are SNB-78 CNS; DMS 273 small cell lung; DLD-1 colon; DMS 114 small cell lung; KM20L2 colon; RXF-631 renal; M19-MEL melanoma; XF 498 CNS.
Assay in all cases: inhibition of tumour cell growth, NCI panel, 48 h

“And” between values parts separate entries of the source, which are not always exact repeats. Equal values may be shown once.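 Grown in 96-well plates, cells were treated for 48 hours with each compound at five concentrations. Insufficient inhibition: endpoint recorded as highest concentration tested. TGI is the concentration that stops growth completely.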 Some results are limits rather than exact numbers.

For `CN1CCCCC(C(O)(c2ccccc2)c2ccccc2)C1=O` (stereo unspecified), the TGI in the assay with SNB-78 CNS, with DMS 273 small cell lung, with DLD-1 colon, in the assay on DMS 114 small cell lung, in the assay on KM20L2 colon and in the assay with RXF-631 renal was > 100 µM in each case. In addition, the TGI in the assay with M19-MEL melanoma and with XF 498 CNS was > 100 µM in each case.
In the case of `Clc1ncnc2c1ncn2CCCCCCCCCCCCn1cnc2c(Cl)ncnc21`, the TGI is 11.2 µM with SNB-78 CNS; 14.1 µM in the assay on DMS 273 small cell lung; 20.4 µM in the assay on DLD-1 colon; 3.55 µM with DMS 114 small cell lung; 30 µM with KM20L2 colon; 5.7 µM with M19-MEL melanoma. The TGI in the assay on XF 498 CNS turned out to be 21.6 µM.
As for `COc1ccc(C2=CN3CCC[C@H]3C=C2c2cc(O)c(OC)c(OC)c2)cc1OC`, the TGI in the assay with SNB-78 CNS was 0.0391 µM; in the assay with DMS 273 small cell lung, 0.0216 µM; with DLD-1 colon it was 0.0627 µM and 0.0119 µM; in the assay on DMS 114 small cell lung, 0.0189 µM; with M19-MEL melanoma it was 0.011 µM.
Regarding `COC(=O)c1cccc(C(=O)OC)c1`, the TGI in the assay on SNB-78 CNS, in the assay on DMS 273 small cell lung, in the assay on DLD-1 colon and in the assay with XF 498 CNS was > 100 µM in each case.
Consider `COc1nc2[nH]ccc2c(=O)n1C`, for which the TGI with SNB-78 CNS, with DMS 273 small cell lung, in the assay with DLD-1 colon, in the assay on DMS 114 small cell lung, in the assay with RXF-631 renal and in the assay with XF 498 CNS was > 100 µM in each case.
As for `CC(=O)Nc1ccc(-c2nnc(SCC(=O)Nc3ccccc3C)o2)cc1`, the TGI in the assay with SNB-78 CNS, in the assay with DMS 273 small cell lung, with DLD-1 colon, in the assay on DMS 114 small cell lung, with KM20L2 colon and with M19-MEL melanoma was > 100 µM each time.
Turning to `c1ccc(Nc2nnc(-c3nsc4ccccc34)o2)cc1`, the TGI with SNB-78 CNS, with DMS 273 small cell lung, in the assay with DMS 114 small cell lung, in the assay with KM20L2 colon and in the assay with M19-MEL melanoma was > 100 µM in each case.
